Results on five molecules are retold here after patent US7853319B2, “Method and system for detecting electrophysiological changes in pre-cancerous and cancerous tissue and epithelium” (Epi-Sci, LLC, priority 2005, dated 2010).

Molecules are shown by their SMILES. Like-named read-outs stand apart in the source and are kept apart here. Some results are limits rather than exact numbers.

Test [1] concerns distal colon. Particulars: administered over the same period (four weeks) as carcinogen; cited from earlier work.
Test [2] deals with histologically "normal" colonic epithelium. Particulars: cited from earlier work.
Test [3] concerns apical K+ channels of premalignant human mucosa (distal colon). Put plainly: Short circuit current of colonic mucosa ex vivo in Ussing chambers, premalignant mucosa. Particulars: assuming complete block. On the procedure: (§1) The potassium permeability of the apical membrane of human colonic mucosa (P^Ka) was determined in surgical specimens of controls and grossly normal-appearing mucosa obtained 10-30 cm proximal to colorectal adenocarcinomas. The mucosa was mounted in Ussing chambers and the basolateral membrane resistance and voltage were nullified by elevating the K^+ in the serosal bathing solution. The apical sodium (Na^+) conductance was blocked with 0.1 mM amiloride. This protocol reduces the equivalent circuit model of the epithelium to an apical membrane conductance and electromotive force in parallel with the paracellular pathway as has been verified by microelectrode studies. […] In cancer-bearing colon the reduction in Isc is to −65 μA/cm^2. The serosal bath was remained constant at 125 mM [K].
(§2) Because the voltage across the apical membrane is zero under these conditions and the paracellular pathway is nonselective, the P^Ka (apical potassium permeability) can be calculated using the Fick equation i.e., Isc=F·P^Ka·Δ[K] where F is the Faraday constant and Δ[K] is the concentration difference for K^+ across the epithelium. […] P^Ka could also be calculated for the change in Isc when the K^+ channels were blocked with TEA, assuming complete block.

For test [4], the system named is apical K+ channels of human colonic epithelium (normal colon). Put plainly: Short circuit current of colonic mucosa ex vivo in Ussing chambers, normal colon (controls). On the procedure:
as §1, §2

Test [5] relates to breast epithelium. Particulars: 20 μM luminal amiloride, cited from earlier work.
For test [6], the system named is malignant human breast epithelial cells. As to the kind of experiment: Transepithelial potential of monolayers in modified Ussing chambers, malignant epithelia. Format: cell-based. On the procedure: (§3) It should be noted that the instantaneous response, illustrated in FIG. 8, is greater in malignant epithelia, whereas the chronic or sustained exposure to estradiol results in a lower increase in TEP (transepithelial electropotential) in malignant cells. Concurrent measurement of surface electropotential and impedance allow the more accurate diagnosis of cancer. […] The cells were grown as monolayers on Millipore filters and grew to confluence in 7 to 10 days. The epithelia were then mounted in modified Ussing chambers and the TEP was measured using a voltage clamp. Increasing doses of estradiol between 0 and 0.8 μM were added (x-axis). The transepithelial potential was measured after each addition and the TEP was measured (y-axis). The different dose response is apparent for benign and malignant epithelia. Malignant epithelia have a lower TEP but undergo an instantaneous increase in TEP of approximately 9 mV (becomes more electronegative and reaches a level of <−6 mV) after exposure to only 0.1 μM estradiol and then depolarize to approximately −2 mV with increasing doses of estradiol up to about 0.5 μM.

The test system of test [7] is breast tissue. As to the kind of experiment: Electrophysiological response of breast tissue after sublingual 17-β-estradiol. As to conditions: sublingual administration, 4 mg. Type of test: in vivo, human. As for the experimental part:
In one method of the present invention, estradiol is introduced directly into the duct or systemically following sublingual administration of 17-β-estradiol (4 mg). This agent produces a rapid response, which peaks at approximately 20 minutes. The electrophysiological response depends, in part, on the stage of the patient's menstrual cycle, as well as the condition of the breast tissue. Specifically, in normal breast tissue, a rise in TEP will occur during the follicular (or early) phase. In pre-cancerous or cancerous tissue, this response is abrogated.

For test [8], the system named is benign breast epithelial cells. As to the kind of experiment: Cell membrane potential (ψ) with potentiometric fluorescent probe, benign cells. As to conditions: estradiol added to the culture media; approximately −50 mV in its absence. Type of test: cell-based, human. On the procedure: (§4) Measurements were made using a potentiometric fluorescent probe, and ratiometric measurements, which are calibrated using valinomycin and [K^+]-gradients. ψs were measured in the presence (closed circles) and absence (open circles) of estradiol (the active metabolite of estrogen). Each symbol is the mean measurement. The upper error bar is the standard error of the mean, and the lower error bar is the 95% confidence level for the observations. The addition of estrogen to cultured breast epithelial cells results in an instantaneous increase in ψ (data not shown) as well as the transepithelial potential see FIG. 8. Transepithelial potential (VT) of an epithelium is the sum of the apical (luminal) cell membrane potential (VA) and the basolateral (abluminal) cell membrane potential (VBL). Therefore VT=VA+VBL (changes in VA and/or VBL will therefore alter VT or transepithelial potential). […] Malignant and transformed cells have a ψ of between −31 and −35 mV in the absence of estradiol and […] when estradiol is present in the culture medium.

In test [9] the test system is Malignant and transformed cells (human breast epithelial cells). Put plainly: Cell membrane potential (ψ) with potentiometric fluorescent probe, malignant and transformed cells. As to conditions: estradiol present in the culture medium; −31 to −35 mV in its absence. Format: cell-based. As for the experimental part: as §4
Test [10] has as its system benign human breast epithelial cells. Put plainly: Transepithelial potential of monolayers in modified Ussing chambers, benign epithelia. Format: cell-based. Particulars: then remains persistently elevated. On the procedure: as §3
Setting [11] is: after exposure to 0.1 μM estradiol.

Turning to `O=c1[nH]cc(F)c(=O)[nH]1` [5-fluorouracil], the “effect on transepithelial potential (VT)” value in test [1] was “did not cause a reduction in VT”.
As to `CNNC` [DMH, 1,2 dimethylhydrazine], the “VA (apical membrane voltage)” value is reported as −61.4 mV in [2] (after 6 weeks of DMH treatment, from −74.9 mV) and −34 mV in [2] (by 20 weeks of DMH treatment).
`CC[N+](CC)(CC)CC` [TEA]: the “apical K+ permeability (P^Ka) calculated from change in Isc on TEA block” value in test [3] is 3.8 ×10⁻⁶ cm/s; in test [4] (controls, assuming complete block), 6.4 ×10⁻⁶ cm/s. For the same molecule, the “effect on short circuit current (Isc)” value in test [4] (30 mM mucosal TEA, 0.1 mM amiloride, elevated serosal K+, normal colon) is “abrupt increase in Isc”.
As to `N=C(N)NC(=O)c1nc(Cl)c(N)nc1N` [amiloride], the “depolarization of the transepithelial potential (change)” value in test [5] (baseline −5.9±0.5 mV (mean±SEM)) is reported as “+3.1±0.5 mV”. Also, the “increase in transepithelial resistance” value in test [5] was 17%.
For the molecule `C[C@]12CC[C@@H]3c4ccc(O)cc4CC[C@H]3[C@@H]1CC[C@@H]2O` [estradiol, 17-β-estradiol], the TEP level reached in [6] (setting [11]) was below −6 mV. Also, the “instantaneous increase in TEP” value in test [6] (setting [11]) is “approximately 9 mV”. Also, the “TEP after depolarization with increasing doses” value in test [6] (increasing doses of estradiol up to about 0.5 μM) is on record as “approximately −2 mV”. For the same molecule, the “time to peak of electrophysiological response” value in test [7] is given as “approximately 20 minutes”. Further, the “cell membrane potential (ψ)” value is around −70 mV in test [8] and “approximately 50 mV” in test [9]. In addition, the “estradiol dose at which TEP response peaks” value in [10] was around 0.3 µM.
